Source: patent US12202835B2, “Substituted aromatic ring-linked dioxinoquinazolines and dioxinoquinolines as kinase inhibitors” (BEIJING SCITECH-MQ PHARMACEUTICALS LIMITED, priority 2018, dated 2025)

Columns and labels:
Ba/F3-AXL cells = experiment: Assay for inhibiting the proliferation of Ba/F3-AXL cells (CCK-8); type: cell-based; settings: 72 hours of incubation, medium with 100 ng/mL hGas6, CCK-8
Procedure: The values were then imported into Graphpad Prism 5 software for curve fitting, and IC50 was calculated.

MHCC97H cells = experiment: Assay for inhibiting the proliferation of MHCC97H cells (CCK-8); type: cell-based; settings: Homo sapiens
Procedure: (§1) In particular, the method of the assay of small molecular compounds for inhibiting cell proliferation is as follows: • 1. Cells cultured to a logarithmic growth phase (adherent cells need to be digested with trypsin and neutralized) were taken, pipetted evenly, transferred to a 15 mL centrifuge tube, and centrifuged at 1000 rpm at room temperature for 4 minutes; • 2. The supernatant was discarded; 5 mL of complete medium was added and pipetted evenly; 10 μL of cell suspension was taken out, mixed well with 10 μL of 0.4% trypan blue, and counted under a cell counter; the proportion of living cells was ensured to be above 90%; • 3. 80 μL of cell suspension per well was seeded into a 96-well plate according to the conditions shown in the attached table, and cultured overnight; in the outer 36 wells of the 96-well plate, no cells were added but only sterile water was added; only the inner 60 wells were used for cell assay and control; • 4. 5×compound dilution: the compounds were serially diluted 3-fold to obtain a total of 9 concentrations; 80-fold overall dilution was completed with complete medium, the resulting concentration was 5 times the final drug concentration, and DMSO concentration was 1.25%; • 5. 20 μL of the corresponding compounds with different concentration gradients were added to each well of assay wells of the 96-well plate; 20 μL of complete medium was added to positive and negative control wells and shaken well; and the final concentration of DMSO in each well was 0.25%; • 6. After 72 hours of incubation, 10 μL of CCK-8 reagent was added to each well and further incubated at 37° C. for 1-2 hours; and the OD value was read at 450 nm; • 7. Cell survival rate (%)=[(As−Ab)/(Ac−Ab)]*100% • As: Assay well (medium containing cells, CCK-8, compound), • Ac: Control well (medium containing cells, CCK-8), • Ab: Blank well (CCK-8, medium without cell and compound), • 8. The values were imported into Graphpad Prism 5 software for IC50 calculation.

EBC1 cells = experiment: Assay for inhibiting the proliferation of EBC1 cells (CCK-8); type: cell-based; settings: Homo sapiens, EBC-1
Procedure: as §1

Ba/F3 LMNA-NTRK1 cells = experiment: Assay for inhibiting the proliferation of Ba/F3 LMNA-NTRK1 cells (CCK-8); type: cell-based; settings: Mus musculus, BaF3
Procedure: as §1, with “5×compound dilution: the compounds were serially diluted 3-fold to obtain a total of 9 concentrations; 80-fold overall dilution was completed with complete medium, the resulting concentration was 5 times the final drug concentration, and DMSO concentration was 1.25%; • 5.” left out

TRKA kinase = TRKA kinase (Homo sapiens (Human), UniProt P04629); experiment: Assay of small molecular compounds for inhibiting the activity of TRKA kinase (LANCE TR-FRET); type: biochemical
Procedure, shortened: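 TRKA (supplied as 2 nM 2× solution) was pre-reacted with compounds for 5 min at room temperature before a 4× ULight-TK peptide/ATP mix (400 nM/40 μM) started the 60-min dark reaction at 1% DMSO. After stop and 60-min detection, TR-FRET was read.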

c-MET kinase = c-MET kinase (Homo sapiens (Human), UniProt P08581); experiment: Assay of small molecular compounds for inhibiting the activity of c-MET kinase (LANCE TR-FRET); type: biochemical; settings: read-out: CMET IC50
Procedure, shortened: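 Eleven final concentrations from 2500 nM down to 0.042 nM, in 4% DMSO, were tested against human c-MET (2× stock 2 nM), with compound and enzyme premixed for 5 min. The phosphorylation reaction used 4× stock of 400 nM ULight-JAK-1 peptide and 40 μM ATP for 60 min at room temperature, then stop and detection steps. TR-FRET percent inhibition against positive and negative controls gave the IC50.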

[1] = system: Ba/F3 LMNA-NTRK1-G595R cells; experiment: Assay for inhibiting the proliferation of Ba/F3 LMNA-NTRK1-G595R cells (CCK-8); type: cell-based; settings: Mus musculus, BaF3
Procedure: as §1

MER kinase = MER kinase (Homo sapiens (Human), UniProt Q12866); experiment: Assay of small molecular compounds for inhibiting the activity of MER kinase (LANCE TR-FRET); type: biochemical
Procedure, shortened: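 LANCE TR-FRET readout of ULight-poly GT phosphorylation by MER kinase; compound final range 0.042-2500 nM, 3-fold steps, 5 min enzyme preincubation. Reaction 60 min at room temperature in the dark with substrate/ATP (4× at 200 nM/20 μM), 1% DMSO, then stopped and developed 60 min; IC50 by curve fit.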

VEGFR-2 kinase = VEGFR-2 kinase (Homo sapiens (Human), UniProt P35968); experiment: Assay of small molecular compounds for inhibiting the activity of VEGFR-2 kinase (LANCE TR-FRET); type: biochemical; settings: read-out: VEGFR2 IC50
Procedure: The assay is based on the LANCE TR-FRET technology of Perkin Elmer Inc., and the assay method is as follows: • 1. Dilution of compounds: a total of 11 concentrations were obtained using a 3-fold gradient dilution from the highest concentration of 2500 nM (the maximum final concentration of the drug used in this assay was 2500 nM, and the minimum final concentration was 0.042 nM). • 2. 2.5 μL of the gradient-diluted compounds were taken with a transfer pipette to a 384-well plate. • 3. Addition of enzyme: 5 μL of 2×VEGFR2 kinase solution (with a concentration of 0.5 nM) was taken with a transfer pipette to the corresponding reaction well of the 384-well plate, mixed well and pre-reacted at room temperature for 30 minutes. • 4. 2.5 μL 4× Ultra ULight™-JAK-1 (Tyr1023) Peptide (with a concentration of 200 nM)/ATP (with a concentration of 40 μM) mixture was taken with a transfer pipette to the corresponding reaction well of the 384-well plate. • 5. Negative control: 2.5 μL/well 4× substrate/ATP mixture and 7.5 μL 1× Kinase Assay Buffer were added to the wells of the 384-well plate. • 6. Positive control: 2.5 μL/well 4× substrate/ATP mixture, 2.5 μL/well 1× Kinase Assay Buffer containing 16% DMSO, and 5 μL/well 2×VEGFR-2 kinase solution were added to the 384-well plate. The final concentration of DMSO in the reaction system was 4%. • 7. The mixture was mixed well and then centrifuged and reacted at room temperature in dark for 60 min. • 8. Termination of the enzymatic reaction: 5 μL of 4× stop solution was taken with a transfer pipette to the wells of the 384-well plate, mixed and then centrifuged, and reacted at room temperature for 5 min. • 9. Development of the reaction: 5 μL of 4× detection solution was taken with a transfer pipette to the wells of the 384-well plate for color development, and the mixture was mixed and then centrifuged and reacted at room temperature for 60 min. • 10. The 384-well plate was placed into the Envision plate reader and the signal was detected using the appropriate program. • 11. Analysis and processing of the raw data: The drug concentrations and the corresponding inhibition rates were input into GraphPad Prism5 for calculation, and the inhibition rate of the compounds were calculated as follows: inhibition rate (%)=(reading of positive well−reading of experimental well)/(reading of positive control well−reading of negative control well)×100%. Processing with GraphPad Prism5 software yielded the corresponding IC50 values (the concentration of the compound at which 50% of the highest inhibition of the enzyme is achieved).

c-MET kinase, sequence (P08581 25-1390): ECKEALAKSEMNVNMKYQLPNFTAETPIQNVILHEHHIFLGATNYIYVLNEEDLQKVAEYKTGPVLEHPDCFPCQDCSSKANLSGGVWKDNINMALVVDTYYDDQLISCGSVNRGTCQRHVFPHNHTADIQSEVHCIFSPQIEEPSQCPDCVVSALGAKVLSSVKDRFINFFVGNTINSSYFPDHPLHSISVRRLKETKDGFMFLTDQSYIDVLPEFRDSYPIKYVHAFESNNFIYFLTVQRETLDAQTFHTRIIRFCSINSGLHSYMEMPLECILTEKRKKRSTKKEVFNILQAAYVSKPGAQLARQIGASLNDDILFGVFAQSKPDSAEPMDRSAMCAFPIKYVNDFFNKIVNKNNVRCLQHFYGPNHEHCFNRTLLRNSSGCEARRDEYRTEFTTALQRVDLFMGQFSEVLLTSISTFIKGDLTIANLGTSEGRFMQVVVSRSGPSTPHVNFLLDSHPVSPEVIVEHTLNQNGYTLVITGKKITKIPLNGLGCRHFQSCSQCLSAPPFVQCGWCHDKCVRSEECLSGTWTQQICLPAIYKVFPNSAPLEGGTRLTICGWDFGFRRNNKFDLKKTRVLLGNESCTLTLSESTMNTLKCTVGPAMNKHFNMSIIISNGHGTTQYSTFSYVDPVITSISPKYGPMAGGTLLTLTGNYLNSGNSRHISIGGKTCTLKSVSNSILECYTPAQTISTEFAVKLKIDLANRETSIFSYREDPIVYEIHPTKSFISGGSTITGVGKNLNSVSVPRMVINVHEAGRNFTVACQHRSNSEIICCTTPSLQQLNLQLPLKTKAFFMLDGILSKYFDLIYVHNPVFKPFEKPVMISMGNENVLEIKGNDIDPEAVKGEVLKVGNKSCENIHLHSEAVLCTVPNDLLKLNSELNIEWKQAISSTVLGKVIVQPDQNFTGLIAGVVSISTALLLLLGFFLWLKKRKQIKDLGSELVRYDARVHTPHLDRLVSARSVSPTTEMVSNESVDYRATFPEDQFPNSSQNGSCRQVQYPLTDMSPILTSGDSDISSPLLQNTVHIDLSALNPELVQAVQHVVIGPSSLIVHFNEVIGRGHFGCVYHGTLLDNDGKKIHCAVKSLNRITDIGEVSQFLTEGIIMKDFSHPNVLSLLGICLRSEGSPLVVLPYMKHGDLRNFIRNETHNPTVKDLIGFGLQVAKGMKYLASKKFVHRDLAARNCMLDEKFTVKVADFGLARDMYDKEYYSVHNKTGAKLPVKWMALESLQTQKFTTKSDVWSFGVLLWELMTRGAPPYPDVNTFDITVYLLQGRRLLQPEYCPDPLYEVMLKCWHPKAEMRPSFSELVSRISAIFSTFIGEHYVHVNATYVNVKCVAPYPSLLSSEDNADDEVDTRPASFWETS
TRKA kinase, sequence (P04629 33-796): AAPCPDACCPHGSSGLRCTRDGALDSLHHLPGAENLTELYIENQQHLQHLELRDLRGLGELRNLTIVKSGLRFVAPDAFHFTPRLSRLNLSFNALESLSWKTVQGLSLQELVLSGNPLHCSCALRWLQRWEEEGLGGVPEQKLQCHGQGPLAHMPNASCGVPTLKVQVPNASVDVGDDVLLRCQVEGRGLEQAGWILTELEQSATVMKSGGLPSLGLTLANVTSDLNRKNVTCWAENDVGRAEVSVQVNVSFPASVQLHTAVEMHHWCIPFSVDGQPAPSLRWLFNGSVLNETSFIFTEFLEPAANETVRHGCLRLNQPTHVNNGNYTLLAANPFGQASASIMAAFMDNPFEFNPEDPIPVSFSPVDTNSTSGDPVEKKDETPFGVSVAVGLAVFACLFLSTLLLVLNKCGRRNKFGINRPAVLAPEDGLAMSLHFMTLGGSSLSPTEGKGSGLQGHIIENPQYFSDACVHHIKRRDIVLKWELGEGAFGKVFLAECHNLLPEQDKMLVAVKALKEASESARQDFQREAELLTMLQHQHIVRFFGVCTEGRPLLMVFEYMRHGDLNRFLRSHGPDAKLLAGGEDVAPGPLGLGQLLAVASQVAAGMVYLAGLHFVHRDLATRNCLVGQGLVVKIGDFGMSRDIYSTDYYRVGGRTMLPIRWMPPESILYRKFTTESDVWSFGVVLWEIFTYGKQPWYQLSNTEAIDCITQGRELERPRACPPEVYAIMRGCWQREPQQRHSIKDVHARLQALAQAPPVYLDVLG
VEGFR-2 kinase, sequence (P35968 20-1356): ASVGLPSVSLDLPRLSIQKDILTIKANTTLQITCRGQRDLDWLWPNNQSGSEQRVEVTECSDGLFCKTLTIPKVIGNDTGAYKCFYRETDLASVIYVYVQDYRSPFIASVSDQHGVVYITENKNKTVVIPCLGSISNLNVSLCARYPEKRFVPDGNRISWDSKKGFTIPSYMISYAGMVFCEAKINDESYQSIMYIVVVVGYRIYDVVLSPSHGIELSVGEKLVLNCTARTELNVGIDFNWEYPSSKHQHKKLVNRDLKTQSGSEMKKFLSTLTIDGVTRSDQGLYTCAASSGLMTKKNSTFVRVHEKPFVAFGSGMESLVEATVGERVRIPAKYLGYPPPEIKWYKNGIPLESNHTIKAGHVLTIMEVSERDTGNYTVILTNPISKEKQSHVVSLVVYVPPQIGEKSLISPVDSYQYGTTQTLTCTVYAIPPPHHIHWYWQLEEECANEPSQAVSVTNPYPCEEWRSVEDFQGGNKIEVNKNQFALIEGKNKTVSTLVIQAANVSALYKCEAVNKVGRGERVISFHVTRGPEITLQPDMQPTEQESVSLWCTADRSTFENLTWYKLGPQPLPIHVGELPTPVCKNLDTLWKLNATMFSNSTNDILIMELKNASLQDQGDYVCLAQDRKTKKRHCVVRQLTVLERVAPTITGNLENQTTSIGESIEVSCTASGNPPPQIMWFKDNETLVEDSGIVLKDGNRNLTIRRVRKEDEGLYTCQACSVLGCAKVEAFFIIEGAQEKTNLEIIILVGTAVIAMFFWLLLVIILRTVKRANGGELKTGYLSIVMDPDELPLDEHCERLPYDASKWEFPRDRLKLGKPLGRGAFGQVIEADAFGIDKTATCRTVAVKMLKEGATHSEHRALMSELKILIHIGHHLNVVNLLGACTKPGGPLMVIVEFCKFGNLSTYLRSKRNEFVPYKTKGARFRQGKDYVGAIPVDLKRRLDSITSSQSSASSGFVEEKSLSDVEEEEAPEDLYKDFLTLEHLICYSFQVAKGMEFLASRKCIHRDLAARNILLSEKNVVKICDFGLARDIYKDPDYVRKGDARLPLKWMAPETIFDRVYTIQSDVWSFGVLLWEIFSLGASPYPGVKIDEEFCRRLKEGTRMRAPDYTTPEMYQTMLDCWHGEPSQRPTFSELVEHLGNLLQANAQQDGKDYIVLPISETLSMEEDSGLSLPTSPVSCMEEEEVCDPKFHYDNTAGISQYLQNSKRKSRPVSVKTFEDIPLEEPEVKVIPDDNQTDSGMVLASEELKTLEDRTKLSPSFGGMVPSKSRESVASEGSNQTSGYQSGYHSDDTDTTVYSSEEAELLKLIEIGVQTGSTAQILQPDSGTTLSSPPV
MER kinase, sequence (Q12866 21-999): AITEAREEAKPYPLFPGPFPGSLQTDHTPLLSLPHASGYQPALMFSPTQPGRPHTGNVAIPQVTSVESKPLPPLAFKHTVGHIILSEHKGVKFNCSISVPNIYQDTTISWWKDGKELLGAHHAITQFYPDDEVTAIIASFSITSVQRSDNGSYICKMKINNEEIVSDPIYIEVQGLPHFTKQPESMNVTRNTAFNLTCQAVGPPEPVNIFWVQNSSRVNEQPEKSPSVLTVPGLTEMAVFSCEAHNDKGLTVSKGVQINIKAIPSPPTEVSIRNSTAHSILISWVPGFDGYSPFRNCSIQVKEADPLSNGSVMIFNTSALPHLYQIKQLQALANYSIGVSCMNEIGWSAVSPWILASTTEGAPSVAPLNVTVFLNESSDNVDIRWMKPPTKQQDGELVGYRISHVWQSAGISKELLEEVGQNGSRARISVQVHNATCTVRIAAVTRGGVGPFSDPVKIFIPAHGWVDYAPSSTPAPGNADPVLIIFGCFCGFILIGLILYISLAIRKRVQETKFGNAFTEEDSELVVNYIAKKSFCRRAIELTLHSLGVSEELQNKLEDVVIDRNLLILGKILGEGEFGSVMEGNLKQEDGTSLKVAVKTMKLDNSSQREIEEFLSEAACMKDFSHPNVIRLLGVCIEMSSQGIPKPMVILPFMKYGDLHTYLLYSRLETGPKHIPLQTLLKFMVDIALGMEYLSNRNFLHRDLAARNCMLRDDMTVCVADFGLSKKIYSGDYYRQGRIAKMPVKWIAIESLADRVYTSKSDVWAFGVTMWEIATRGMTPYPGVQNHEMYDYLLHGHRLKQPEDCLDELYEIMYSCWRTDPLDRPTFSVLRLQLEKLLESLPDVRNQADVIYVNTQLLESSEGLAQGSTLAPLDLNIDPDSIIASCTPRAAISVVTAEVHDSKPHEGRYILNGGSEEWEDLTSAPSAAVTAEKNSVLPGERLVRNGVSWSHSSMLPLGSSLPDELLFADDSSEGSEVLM

Row | Structure (SMILES) | IC50 (Ba/F3-AXL cells) [nM] | IC50 (Ba/F3 LMNA-NTRK1 cells) [nM] | IC50 (TRKA kinase) [nM] | IC50 (c-MET kinase) [nM] | IC50 [1] [nM] | IC50 (MER kinase) [nM] | IC50 (VEGFR-2 kinase) [nM] | IC50 (MHCC97H cells) [nM] | IC50 (EBC1 cells) [nM]
1 | O=C(Nc1ccc(Oc2ccnc3cc(OCCCN4CCOCC4)c4c(c23)OCCO4)c(F)c1)c1cccn(-c2ccc(F)cc2)c1=O [Example 20, N-(3-fluoro-4-((5-(3-morpholinopropoxy)-2,3-dihydro-[1,4]dioxino[2,3-f]quinolin-10-yl)oxy)phenyl)-1-(4-fluorophenyl)-2-oxo-1,2-dihydropyridine-3-carboxamide] | < 50 | < 50 |  |  |  |  |  | ≤ 50 | ≤ 50
2 | CCn1cc(C(=O)Nc2cc(F)c(Oc3ccnc4cc(OCCOC)c5c(c34)OCCO5)cc2C(C)C)c(=O)n(-c2ccc(F)cc2)c1=O [Example 184, N-(5-fluoro-4-((5-(2-methoxyethoxy)-2,3-dihydro-[1,4]dioxino[2,3-f]quinolin-10-yl)oxy)-2-isopropylphenyl)-3-(4-fluorophenyl)-1-ethyl-2,4-dioxo-1,2,3,4-tetrahydropyrimidine-5-carboxamide] |  |  | 50 to 500 |  |  |  |  | > 1000 | 
3 | CCc1cc(Oc2ccnc3cc(OCCOC)c4c(c23)OCCO4)c(F)cc1NC(=O)c1cn(C)c(=O)n(-c2ccc(F)cc2)c1=O [Example 181, N-(5-fluoro-4-((5-(2-methoxyethoxy)-2,3-dihydro-[1,4]dioxino[2,3-f]quinolin-10-yl)oxy)-2-ethylphenyl)-3-(4-fluorophenyl)-1-methyl-2,4-dioxo-1,2,3,4-tetrahydropyrimidine-5-carboxamide] |  |  | < 50 | ≤ 50 |  |  |  | 50 to 200 | 
4 | CCOc1ccn(-c2ccc(F)cc2)c(=O)c1C(=O)Nc1ccc(Oc2ccnc3cc(OCCCN(C)C)c4c(c23)OCCO4)c(F)c1 [Example 61, N-(4-((5-((3-dimethylamino)propoxy)-2,3-dihydro-[1,4]dioxino[2,3-f]quinolin-10-yl)oxy)-3-fluorophenyl)-4-ethoxy-1-(4-fluorophenyl)-2-oxo-1,2-dihydropyridine-3-carboxamide] | < 50 | < 50 |  |  |  |  |  | ≤ 50 | ≤ 50

The next lines start with results.

Row | IC50 (Ba/F3-AXL cells) [nM] | IC50 (Ba/F3 LMNA-NTRK1 cells) [nM] | IC50 (TRKA kinase) [nM] | IC50 (c-MET kinase) [nM] | IC50 [1] [nM] | IC50 (MER kinase) [nM] | IC50 (VEGFR-2 kinase) [nM] | Structure (SMILES) | IC50 (MHCC97H cells) [nM] | IC50 (EBC1 cells) [nM]
5 | < 50 | < 50 |  |  |  |  |  | CCOc1ccn(-c2ccc(F)cc2)c(=O)c1C(=O)Nc1ccc(Oc2ccnc3cc(OCCCCCCN(C)C)c4c(c23)OCCO4)c(F)c1 [Example 60, N-(4-((5-((6-dimethylamino)hexyloxy)-2,3-dihydro-[1,4]dioxino[2,3-f]quinolin-10-yl)oxy)-3-fluorophenyl)-4-ethoxy-1-(4-fluorophenyl)-2-oxo-1,2-dihydropyridine-3-carboxamide] | 50 to 200 | ≤ 50
6 |  |  | 50 to 500 | ≤ 50 |  |  |  | CCc1cc(Oc2ccnc3cc(OCCOC)c4c(c23)OCCO4)c(F)cc1NC(=O)c1cn(CC)c(=O)n(-c2ccc(F)cc2)c1=O [Example 182, N-(5-fluoro-4-((5-(2-methoxyethoxy)-2,3-dihydro-[1,4]dioxino[2,3-f]quinolin-10-yl)oxy)-2-ethylphenyl)-3-(4-fluorophenyl)-1-ethyl-2,4-dioxo-1,2,3,4-tetrahydropyrimidine-5-carboxamide] | ≤ 50 | 
7 |  |  | 50 to 500 | 50 to 500 |  |  |  | COCCOc1cc2nccc(Oc3cc(C(C)C)c(NC(=O)c4cn(C)c(=O)n(-c5ccc(F)cc5)c4=O)cc3F)c2c2c1OCCO2 [Example 183, N-(5-fluoro-4-((5-(2-methoxyethoxy)-2,3-dihydro-[1,4]dioxino[2,3-f]quinolin-10-yl)oxy)-2-isopropylphenyl)-3-(4-fluorophenyl)-1-methyl-2,4-dioxo-1,2,3,4-tetrahydropyrimidine-5-carb oxamide] | > 1000 | 
8 |  | < 50 | < 50 |  | 50 to 200 |  |  | Cc1cc(Oc2ccnc3ccc4c(c23)OCCO4)c(F)cc1NC(=O)c1cn(C)c(=O)n(-c2ccc(F)cc2)c1=O [Example 175, N-(4-((2,3-dihydro-[1,4]dioxino[2,3-f]quinolin-10-yl)oxy)-5-fluoro-2-methylphenyl)-3-(4-fluorophenyl)-1-methyl-2,4-dioxo-1,2,3,4-tetrahydropyrimidine-5-carboxamide] |  | 
9 | < 50 | < 50 | < 50 |  |  | ≤ 50 | 500 to 5000 | COc1cc2nccc(Oc3ccc(NC(=O)c4c(OC)ccn(-c5ccc(F)cc5)c4=O)c(Cl)c3)c2c2c1OCCO2 [Example 124, N-(2-chloro-4-((5-methoxy-2,3-dihydro-[1,4]dioxino[2,3-f]quinolin-10-yl)oxy)phenyl)-1-(4-fluorophenyl)-4-methoxy-2-oxo-1,2-dihydropyridine-3-carboxamide] |  | 
